{
  "source": "patent US20260034075A1",
  "about": "“CHOLINE CARBOXYLIC ACID BASED IONIC LIQUIDS AS ANTIMICROBIAL AGENTS” (University of Mississippi, priority 2022, published 2026)",
  "format_in_all_cases": "cell-based",
  "key": {"E. coli [BL21(DE3)]": {"system": "E. coli [BL21(DE3)]", "test": "Minimal Bactericidal Concentration (MBC) measurements, E. coli", "procedure": "(§1) Bacterial Cell Culturing. Expression cells from frozen stock were streaked onto a kanamycin-selected lysogeny broth (LBKan) agar plate using a sterile loop and incubated overnight at 37° C. One colony was then taken from the plate the next day to inoculate 50 mL of sterile LBKan broth and shaken at 37° C. until reaching a growth concentration of 4×10^8 CFU/mL. This protocol was used for bacterial cell culture preparation in all of the experiments described below.\nMinimal Bactericidal Concentration (MBC) Measurements. E. coli cells were cultured as described above and aliquoted into sterile tubes. 1%, 10%, and 100% (w/v) solutions of IL in sterile water (correcting for water percentage of the IL) were prepared and sonicated for 15 minutes at 40° C. before addition to the liquid culture. IL solutions were then added to E. coli at varying percentages (v/v), allowing calculation of the actual concentration of IL that was added to the culture. 100 μL of each solution was then spread onto an LBKan agar plate and incubated overnight at 37° C. […] Each IL solution was tested in triplicate."}, "E. coli": {"system": "E. coli", "test": "E. coli kinetic study (OD600 over 16 hours, first-order kinetics fit)", "procedure": "E. coli Kinetic Study. A 96-well plate was filled with 180 μL of E. coli cells that were cultured as mentioned above and treated with 20 μL CADA 1:1 of concentrations ranging from the lethal concentration to one-sixteenth of that concentration to determine how the growth inhibition is affected with changing concentration of the IL. 20 μL of growth media was added to the “untreated” cells such that all wells contained a total volume of 200 μL. The plate was heated to 37° C. with triplicate OD600 measurements taken every 20 minutes over the course of 16 hours with a Biotek Synergy H1 microplate reader.\nBactericidal and Bacteriostatic Activity Kinetics. […] CADA 1:1 was employed instead of CADA 1:2 in this study because of its lowered turbidity in comparison. 180 μL of liquid E. coli culture was added to each well of a 96-well plate and brought up to 200 μL with either IL treatment or growth media alone if untreated. […] However, the cells treated with sublethal concentrations of IL still show what seem to be minor inhibitory interactions with the IL before exiting the lag phase and starting to grow. […] The turbidity of longer chain choline carboxylic acid-based ILs is quite high in aqueous solution and can falsely be determined as growth in OD measurements. Previous studies have shown that the critical micellar concentration (CMC) tends to […] with alkyl chain length and ionic strength, which could potentially affect antimicrobial efficacy. Therefore, IL solutions in sterile water at the same concentrations used to treat the bacteria were utilized as a control and subtracted from the wells with E. coli cells receiving IL treatment.\nIntegration of Growth Inhibition Following First-Order Kinetics. […] This was achieved by plotting In([A]T/[A]0) vs. time during the growth period to produce a linear representation of the logarithmic growth. Once the integrations were performed and plotted, rate constants were extracted with uncertainty from the slope of the trendlines. For the untreated cells and cells treated with sublethal concentrations, the logarithmic growth was positive, therefore, the rate constant should be positive. […] The rate of inhibition (k=0.0055±0.0002) was almost one-third of the growth rate of the cells that received no treatment, meaning that the inhibition is occurring immediately and for the duration of the study, suppressing the natural growth of the cells by 70%."}, "[1]": {"system": "Human embryonic kidney (HEK-293) cells", "procedure": "Cytotoxicity Studies. Human embryonic kidney (HEK-293) cells were treated in vitro with four of the top candidates (CADA 1:1, CADA 1:2, CA2DE 1:2, and CA3DE 1:2) to determine the concentration at which the IL dosage is toxic to human cells. 1% (w/v) solutions of each IL in sterile water were prepared similarly to the MBC experiments before addition at five different concentrations. The HEK cells were incubated with the IL treatments for 24 hours and then prepared with CellTiter-Glo(R) Luminescent Cell Viability reagent (100 μL per well). Brightfield microscopy images were used to qualitatively depict the concentration at which the cells were no longer viable, while a 96-well plate reader was used to quantitatively determine the percent viability of the cells at each concentration of the ILs. Quantitative measurements were performed in triplicate.\nHuman Biocompatibility Studies. […]\nThe viability of the cells was then quantified by preparing the IL-treated cells with 100 μL of CellTiter-Glo(R) Luminescent Cell Viability reagent in each well and measuring the luminescence on the plate reader. […] The results are expressed as percent viability and present as mean±standard deviation of three independent experiments (FIGS. 8A-8D). […]"}, "MRSA [BAA-1708]": {"system": "MRSA [BAA-1708]", "test": "Growth inhibition / MBC of Methicillin Resistant Staphylococcus aureus (MRSA)", "conditions": "Table 2; 1:2 mole ratio ILs", "procedure": "as §1\nGrowth Inhibition of Methicillin Resistant Staphylococcus Aureus (MRSA). 10% (w/v) solutions of IL in sterile water were prepared similarly to the E. coli MBC experiments. ILs with anion chain lengths of 8-12 carbons at 1:2 mole ratio of choline to anion were added to MRSA at varying concentrations to determine the lowest concentration in which growth was inhibited. Concentrations were then compared to values obtained for E. coli for each solution."}, "[2]": {"conditions": "Table 1, lowest IL concentration with no growth on LBKan agar plate, triplicate"}},
  "data": [
    {"compound": "CCCCCCCCCC(=O)[O-].C[N+](C)(C)CCO", "note": "[CADA 1:1, Choline Decanoate 1:1]", "values": [
      {"measurement": "E. coli MBC", "setting": "E. coli [BL21(DE3)]; [2]", "value": 3480, "unit": "µM"},
      {"measurement": "suppression of the natural growth of the cells", "setting": "E. coli; lethal concentration", "value": 70, "unit": "%"},
      {"measurement": "rate of inhibition k", "setting": "E. coli; lethal concentration, first-order fit of OD600", "value": "0.0055±0.0002"},
      {"measurement": "OD600 course at lethal concentration", "setting": "E. coli; lethal concentrations, 16 hours", "value": "inhibited immediately with a steady decrease in OD600"},
      {"measurement": "delay of normal growth after the untreated cells entered the log phase", "setting": "E. coli; sublethal doses, extended lag phase", "value": "about two"},
      {"measurement": "growth rate relative to the rate of the untreated cells", "setting": "E. coli; sublethal treatment", "value": "20-25%"},
      {"measurement": "growth rate constant k", "setting": "E. coli; sublethal treatment, first-order fit of OD600", "value": "0.0039±0.0002"},
      {"measurement": "percent viability", "setting": "[1]", "value": "over 97%"}
    ]},
    {"compound": "Choline Decanoate 1:2 [CADA 1:2]", "values": [
      {"measurement": "E. coli MBC / killing efficacy concentration", "setting": "E. coli [BL21(DE3)]", "value": 560, "unit": "µM"},
      {"measurement": "E. coli MBC", "setting": "E. coli [BL21(DE3)]; [2]", "value": 560, "unit": "µM"},
      {"measurement": "E. coli MBC", "setting": "E. coli [BL21(DE3)]; Table 2, comparison with MRSA", "value": 560, "unit": "µM"},
      {"measurement": "MRSA MBC", "setting": "MRSA [BAA-1708]", "value": 2230, "unit": "µM"},
      {"measurement": "percent viability", "setting": "[1]", "value": "> 60", "unit": "%"}
    ]}
  ]
}
